In the series the target is Multidrug resistance-associated protein 1 (Homo sapiens, UniProt P33527). Kind of series: TP_TRANSPORTER: intracellular accumulation in KB-3-1 and MRP1-expressing KB-3-1 cells. In kind it is functional, cell-based, KB-3-1; KB/MRP. As to conditions: kb/mrp.

Activity data for 2 compounds are collected here from ChEMBL document CHEMBL2074109, “ATP-Dependent efflux of CPT-11 and SN-38 by the multidrug resistance protein (MRP) and its inhibition by PAK-104P” (Mol Pharmacol, 1999).

Sequence of Multidrug resistance-associated protein 1 (P33527 whole entry): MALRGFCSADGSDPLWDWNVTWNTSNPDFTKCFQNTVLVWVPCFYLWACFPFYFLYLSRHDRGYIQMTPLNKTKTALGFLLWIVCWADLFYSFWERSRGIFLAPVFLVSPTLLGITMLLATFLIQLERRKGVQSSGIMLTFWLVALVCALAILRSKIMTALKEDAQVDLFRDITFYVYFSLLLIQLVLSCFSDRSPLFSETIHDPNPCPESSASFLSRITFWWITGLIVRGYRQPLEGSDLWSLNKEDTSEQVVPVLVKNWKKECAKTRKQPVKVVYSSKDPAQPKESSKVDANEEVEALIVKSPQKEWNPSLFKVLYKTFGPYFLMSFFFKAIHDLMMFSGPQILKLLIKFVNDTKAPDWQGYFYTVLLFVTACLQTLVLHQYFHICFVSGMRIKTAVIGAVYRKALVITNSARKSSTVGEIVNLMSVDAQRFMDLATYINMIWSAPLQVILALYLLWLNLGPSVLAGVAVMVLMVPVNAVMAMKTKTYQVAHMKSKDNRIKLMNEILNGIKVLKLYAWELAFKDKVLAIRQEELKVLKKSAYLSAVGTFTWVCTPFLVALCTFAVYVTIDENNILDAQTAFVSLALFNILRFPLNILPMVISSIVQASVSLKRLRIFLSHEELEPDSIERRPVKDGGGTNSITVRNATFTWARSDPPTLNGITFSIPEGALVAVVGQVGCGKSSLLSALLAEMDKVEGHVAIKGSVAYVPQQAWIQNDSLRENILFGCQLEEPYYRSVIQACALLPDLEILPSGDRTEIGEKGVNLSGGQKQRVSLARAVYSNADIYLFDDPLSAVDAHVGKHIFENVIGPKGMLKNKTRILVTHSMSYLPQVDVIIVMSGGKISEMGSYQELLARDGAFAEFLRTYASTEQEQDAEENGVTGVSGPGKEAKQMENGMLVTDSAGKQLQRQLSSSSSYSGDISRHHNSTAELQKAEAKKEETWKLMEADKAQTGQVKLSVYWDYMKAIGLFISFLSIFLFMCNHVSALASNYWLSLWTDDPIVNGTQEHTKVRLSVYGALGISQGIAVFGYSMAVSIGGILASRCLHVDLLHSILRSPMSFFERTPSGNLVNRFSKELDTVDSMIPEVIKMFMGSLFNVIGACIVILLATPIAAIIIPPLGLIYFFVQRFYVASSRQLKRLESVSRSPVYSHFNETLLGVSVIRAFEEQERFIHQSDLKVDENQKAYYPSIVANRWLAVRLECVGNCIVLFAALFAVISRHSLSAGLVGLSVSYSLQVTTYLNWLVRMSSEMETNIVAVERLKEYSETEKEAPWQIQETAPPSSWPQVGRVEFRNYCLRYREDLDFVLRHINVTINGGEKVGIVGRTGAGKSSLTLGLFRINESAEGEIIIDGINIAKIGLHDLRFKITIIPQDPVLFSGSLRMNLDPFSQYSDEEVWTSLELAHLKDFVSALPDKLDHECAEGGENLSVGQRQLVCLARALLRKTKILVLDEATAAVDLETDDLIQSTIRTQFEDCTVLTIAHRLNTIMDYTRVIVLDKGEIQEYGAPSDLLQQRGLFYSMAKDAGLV

`CCc1c2c(nc3ccc(O)cc13)-c1cc3c(c(=O)n1C2)COC(=O)[C@]3(O)CC` [7-ETHYL-10-HYDROXYCAMPTOTHECIN]: the Activity result is “substrate [+]”.
`CCc1c2c(nc3ccc(OC(=O)N4CCC(N5CCCCC5)CC4)cc13)-c1cc3c(c(=O)n1C2)COC(=O)[C@]3(O)CC` [IRINOTECAN]: the Activity result was “substrate [+]”.
